Measurements taken from US12410157B2, “Compound useful as toll-like receptor 7 activation inhibitor” (TOYAMA PREFECTURAL UNIVERSITY, priority 2020, dated 2025).
Values joined by “and” are separate entries in the source; they are usually repeats but may differ in a detail not shown here. Identical values can stand only once.

Legend:
[1] = Plasma concentration in normal mice after oral administration; format: in vivo, mice (C57BL/6N); conditions: C57BL/6N mice, 1 mg orally
Method: Plasma concentrations of CB-7 or B2-24-4-5A·HCOOH were measured in normal mice (C57BL/6N, 11 weeks old, female) after oral administration. 1 mg of CB-7 or B2-24-4-5A·HCOOH was administered orally to mice C57BL/6N. After 0.5, 1, 2, 4, or 8 hours, blood was collected from mice C57BL/6N to prepare plasma. The concentration of CB-7 or B2-24-4-5A·HCOOH in the plasma was measured by LC/MS/MS.

[2] = system: systemic lupus erythematosus model mice (NZBWF1); assay: Therapeutic effect in mouse model of spontaneous systemic lupus erythematosus; format: in vivo
Method: Systemic lupus erythematosus model mice (NZBWF1, 20 weeks old, female, n=55) were divided into saline-administered group (control, n=25), B2-24-4-5A·HCOOH-administered group (n=10), B2-24-4·HCOOH-administered group (n=5) and HCQ-administered group (n=15). The saline-administered group received saline (100 l) orally once a day, every day; the B2-24-4-5A·HCOOH-administered group received 10 mg/kg of B2-24-4-5A·HCOOH (100 l) orally once a day, every day; the B2-24-4·HCOOH-administered group received 10 mg/kg of B2-24-4·HCOOH (100 l) orally once a day, every day; the HCQ-administered group received 10 mg/kg of HCQ (100 l) orally once a day, every day. Fifteen weeks after the start of treatment, urine was collected from surviving mice in the saline-administered group (control, n=17), B2-24-4-5A·HCOOH-administered group (n=10), B2-24-4·HCOOH-administered group (n=5), and HCQ-administered group (n=12), and the mice were euthanized. After euthanasia, blood was drawn from the abdominal aorta of the mice, and the kidneys and spleen were removed.
Mice that died of natural causes during the 15-week period from the start of treatment were counted as deaths, and survival analysis was performed using the Kaplan Meier method. Blood collected from the abdominal aorta of each mouse, excluding the deceased cases, was centrifuged and serum was prepared. Determination of urea nitrogen and creatinine levels in serum was entrusted to Oriental Yeast Co. Albumin levels in urine were determined by ELISA (used kit: Levis Urinary Albumin-Mouse (S-type) (trade name) (Fujifilm Wako Shibayagi Corporation)). The removed kidneys were fixed with 4% (w/v) paraformaldehyde, and immunohistochemical staining was entrusted to Morpho Technology, Inc. In PAS-stained kidney tissue sections, histological findings of 100 glomeruli were evaluated. For increased cells and substrate in the mesangial area, endothelial cell swelling and cellular infiltration of the capillary lumen (intratubular proliferation), and glomeruli with inflammatory crescents (extratubular proliferation), each of the 100 glomeruli was assigned a grade from grade 0 to grade 2 according to severity and scored on a 6-point scale.
FIG. 10F is a photograph showing C3 deposition in the glomeruli of a mouse (#1) in the saline-administered group, a mouse (#10) in the B2-24-4-5A·HCOOH-administered group, a mouse (#4) in the B2-24-4·HCOOH-administered group and a mouse (#14) in the HCQ-administered group. […] In the renal tissue sections of a mouse (#1) in the saline-administered group, findings of active glomerulonephritis such as diffuse mesangial and intratubular proliferation were observed. […] The plots in FIGS. 10B, 10C, and 10D show the data for each individual, each bold line is the mean of the group data, and each error bar standard error. Scale bars in FIGS. 10E and 10F represent 100 μm. […]

[3] = Plasma concentration in mouse model of systemic lupus erythematosus after oral administration; format: in vivo; conditions: NZBWF1 mice, 5 mg/kg orally
Method: Plasma concentrations of B2-24-4-5A·HCOOH were determined after oral administration of B2-24-4-5A·HCOOH in a mouse model of systemic lupus erythematosus (NZBWF1, 20 weeks old, female). 5 mg/kg of B2-24-4-5A·HCOOH was administered orally to NZBWF1 mice. After 0.5, 1, 2, 4, 8, 16, or 24 hours, blood was collected from NZBWF1 mice to prepare plasma. The concentration of B2-24-4-5A·HCOOH in the plasma was determined by LC/MS/MS.

[4] = female, mouse, plasma, po, LC/MS/MS

SMILES: C=C(C)[C@@H]1CC[C@]2(COC(=O)C2)C[C@H]1c1ccc(CN2CCNCC2)cc1 [B2-24-4-5A·HCOOH]
- Persistence in plasma compared to CB-7 [1]: remains in plasma for a longer time than CB-7
- concentration at 8 h [1, 4]: ~500 ng/mL
- Surviving mice fifteen weeks after the start of treatment ([2]; 10 mg/kg orally once a day, groups started with n=10, n=5, n=15 (HCQ)): 10
- score ([2]; per mouse, histological score on a 6-point scale): 0.23 and 0.15 and 0.42 and 0.09 (2×) and 0.24 and 0.03 and 0.04 and 0.14 and 0.52
- Inside 0 ([2]; per mouse, of 100 glomeruli, endothelial cell swelling and cellular infiltration of capillary lumen, Grade 0): 99 (2×) and 100 (3×) and 78 and 96 and 94 and 97 and 74
- Inside 1 ([2]; per mouse, of 100 glomeruli, endothelial cell swelling and cellular infiltration of capillary lumen, Grade 1): 1 (2×) and 0 (3×) and 18 and 4 and 6 and 3 and 20
- Inside 2 ([2]; per mouse, of 100 glomeruli, endothelial cell swelling and cellular infiltration of capillary lumen, Grade 2): 0 (8×) and 4 and 6
- Outside 0 ([2]; per mouse, of 100 glomeruli, glomerulus with semilunar, Grade 0): 99 and 100 (9×)
- Outside 1 ([2]; per mouse, of 100 glomeruli, glomerulus with semilunar, Grade 1): 1 and 0 (9×)
- Outside 2 ([2]; per mouse, of 100 glomeruli, glomerulus with semilunar, Grade 2): 0
- Mes0 ([2]; per mouse, of 100 glomeruli, increase in cells and substrates in the mesangium region, Grade 0: None, 10 mg/kg orally, 15 weeks, 10 mg/kg): 80 (3×) and 86 (2×) and 92 (2×) and 97 and 96 and 94
- Mes1 ([2]; per mouse, of 100 glomeruli, mesangium region, Grade 1: Moderate or lower): 19 and 13 and 12 and 8 (2×) and 20 (2×) and 3 and 4 and 6
- Mes2 ([2]; per mouse, of 100 glomeruli, mesangium region, Grade 2: Moderate or higher): 1 (2×) and 2 and 0 (7×)
- Plasma level after 8 hours [3]: near-bottom level
- concentration at 0.5 h [3, 4]: 88.1 ng/mL
